Source: US20050287666A1, “Cell culture medium comprising transition metals or trace elements” (priority 2004, published 2005)
Entries after “also recorded” stand apart in the source; their conditions may differ. Like-named read-outs stand apart in the source and are kept apart here.

What was measured:
Type in all cases: cell-based, human
PER.C6 cells [1] = experiment: Lag in the subsequent culture when PER.C6 cells are passaged from overgrown high-density cultures in AEM; details: for high density culturing / passaging of cells from high-density cultures: PER.C6 cells in AEM, cultures above 2×10^6 vc/mL
PER.C6 cells [2] = experiment: PER.C6 growth in AEM supplemented with TEM, TEM without zinc or zinc alone (Example 1 and preliminary work); details: zinc evaluated separately
Description: A trace element mix (TEM) was created and used in various test protocols. […] The following media supplements were compared: • 1) TEM. • 2) TEM without zinc. • 3) Zinc alone at the TEM concentration. • 4) These supplements were each added to individual bottles of AEM at 1×, 3×, 5× and 10×. The conditions were then monitored by observing PER.C6 growth. […] Two of the components in TEM, Cu and Ni would individual be toxic at the 10× levels. These levels of trace elements would have been observed in the preliminary variable observations. Thus it was decided that total trace element concentrations were not responsible for the deleterious effects observed.

PER.C6 cells [3] = experiment: PER.C6 cell growth after adding cobalt, nickel and manganese to AEM supplemented with TEM-2 (Example 5, FIG. 04)
PER.C6 cells [4] = experiment: PER.C6 cell growth in AEM with single trace elements added at low concentration (Example 2, FIG. 01); details: for effect on PER.C6 cell growth: element added singly to AEM: nickel (nitrate) 0.004 mg/L, cobalt (chloride) 0.001 mg/L, manganese (chloride) 0.028 mg/L, copper (chloride) 0.013 mg/L, compared to control

[Zn] [Zinc]
high density culturing / passaging of cells from high-density cultures (PER.C6 cells [1]): consistent high density culturing
lag in the subsequent culture (PER.C6 cells [1]; passaged from overgrown day 5 cultures, AEM): did not lag
overall cell growth (PER.C6 cells [2]): improve overall cell growth

[Cl][Co][Cl] [cobalt, cobalt (chloride)]
effect on PER.C6 cell growth performance (PER.C6 cells [3]): no effect

[Cl][Cu][Cl] [copper, copper (chloride)]
high density culturing / passaging of cells from high-density cultures (PER.C6 cells [1]): does not improve passaging
duration of log growth phase (PER.C6 cells [4]; 0.013 mg/L copper in AEM, all other cultures entered lag phase after day four or five): continued in the log growth phase through day six
effect on PER.C6 cell growth (PER.C6 cells [4]): best results of all conditions tested; also recorded: extends log phase growth
effect on PER.C6 cell growth (PER.C6 cells [4]; listed as Copper): increase growth

[Cl][Mn][Cl] [manganese, manganese (chloride)]
effect on PER.C6 cell growth (PER.C6 cells [4]): inhibits; also recorded: individually toxic
effect on PER.C6 cell growth performance (PER.C6 cells [3]; added to AEM supplemented with TEM-2, same concentrations as in example 2): no effect
